Measurements reported in patent publication US20240109900A1, “AZABICYCLIC SHP2 INHIBITORS” (IRBM S.P.A., priority 2021, published 2024).
Like-named read-outs stand apart in the source and are kept apart here.

Key:
[1] = target: SHP-2 enzyme (Met1-Leu525) (Homo sapiens (Human), UniProt Q06124); experiment: SHP2 inhibition enzymatic assay; assay type: biochemical; conditions: 75 μM DiFMUP substrate
In short: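 Compounds were preincubated 30 min with 0.5 nM SHP-2 (Met1-Leu525) plus 500 nM IRS1 activating peptide (pH 7.2 HEPES, 5 mM DTT), then 75 μM DiFMUP substrate reacted 30 min at room temperature. After bpV quench, DiFMUP fluorescence gave % inhibition; four-parameter logistic fit yielded IC50.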

[2] = system: ERK phosphorylation in KYSE-520 cells; experiment: Phospho-ERK cellular assay; assay type: cell-based; conditions: read-out: PERK IC50
In short: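 TR-FRET read-out of ERK1/2 Thr202/Tyr204 phosphorylation was taken after overnight antibody incubation at room temperature. Before that, KYSE-520 cells were treated 2 h at 37 °C with compound dilutions and lysed 30 min. Percent inhibition relative to vehicle and cell-free wells was fitted four-parametrically to give IC50.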

[3] = 0.5 nM SHP-2 activated by 500 nM IRS1 peptide, read-out: SHP2wt-IC50
[4] = Homo sapiens, KYSE-520, 2 h, KYSE-520 cells, 2 h at 37° C., phospho-ERK1/2 (Thr202/Tyr204) TR-FRET
[5] = SHP2wt-IC50, 0.5 nM SHP-2 activated by 500 nM IRS1 peptide
[6] = KYSE-520 cells, 2 h at 37° C., phospho-ERK1/2 (Thr202/Tyr204) TR-FRET

Sequence of SHP-2 enzyme (Met1-Leu525) (Q06124 1-525): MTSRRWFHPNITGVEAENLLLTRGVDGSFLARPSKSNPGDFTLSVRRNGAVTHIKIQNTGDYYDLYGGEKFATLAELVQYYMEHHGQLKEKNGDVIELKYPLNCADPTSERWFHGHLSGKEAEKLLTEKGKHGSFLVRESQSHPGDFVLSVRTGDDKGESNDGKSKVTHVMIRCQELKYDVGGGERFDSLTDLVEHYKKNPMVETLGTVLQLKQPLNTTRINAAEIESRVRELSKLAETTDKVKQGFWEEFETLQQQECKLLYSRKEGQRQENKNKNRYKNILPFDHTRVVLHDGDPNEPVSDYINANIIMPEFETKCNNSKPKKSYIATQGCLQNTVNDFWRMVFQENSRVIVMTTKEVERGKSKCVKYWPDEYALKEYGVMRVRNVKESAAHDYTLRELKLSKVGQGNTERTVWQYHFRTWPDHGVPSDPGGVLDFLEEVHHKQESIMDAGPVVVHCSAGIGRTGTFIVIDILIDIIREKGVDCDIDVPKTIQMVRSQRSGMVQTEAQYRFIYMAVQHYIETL

Row | SMILES | IC50 [1, 3] [µM] | IC50 [2, 4] [µM] | IC50 [1, 5] [µM] | IC50 ([2]; Homo sapiens, KYSE-520, 2 h) [µM] | IC50 [2, 6] [µM]
1 | NC[C@]1(c2ccccc2F)[C@@H]2CCN(c3cnc4c(N5CCCc6ncccc65)n[nH]c4n3)C[C@@H]21 [Example 169, ((1S,6R,7R)-3-(3-(3,4-dihydro-1,5-naphthyridin-1(2H)-yl)-1H-pyrazolo[3,4-b]pyrazin-6-yl)-7-(2-fluorophenyl)-3-azabicyclo[4.1.0]heptan-7-yl)methanamine] | < 0.5 | < 1 |  |  | 
2 | Cc1cc(C2(CN)C3CCN(c4cnc5c(-c6cccc7nn(C)cc67)n[nH]c5n4)CC32)no1 (stereo not drawn) [Example 26, (3-(3-(2-methyl-2H-indazol-4-yl)-1H-pyrazolo[3,4-b]pyrazin-6-yl)-7-(5-methylisoxazol-3-yl)-3-azabicyclo[4.1.0]heptan-7-yl)methanamine] | < 0.5 | < 1 |  |  | 
3 | Cc1c(-c2n[nH]c3nc(N4CC[C@@H]5[C@H](C4)[C@@]5(CN)c4ccccc4F)cnc23)ccn2cnnc12 [Example 211, ((1S,6R,7R)-7-(2-fluorophenyl)-3-(3-(8-methyl-[1,2,4]triazolo[4,3-a]pyridin-7-yl)-1H-pyrazolo[3,4-b]pyrazin-6-yl)-3-azabicyclo[4.1.0]heptan-7-yl)methanamine] | < 0.5 | > 5 |  |  | 
4 | Cc1cc(C2(CN)C3CCN(c4cnc5c(-c6ccc(Cl)c7cnccc67)n[nH]c5n4)CC32)no1 (stereo not drawn) [Example 34, (3-(3-(8-chloroisoquinolin-5-yl)-1H-pyrazolo[3,4-b]pyrazin-6-yl)-7-(5-methylisoxazol-3-yl)-3-azabicyclo[4.1.0]heptan-7-yl)methanamine] | < 0.5 | < 1 |  |  | 
5 | NC[C@]1(c2ccccc2F)[C@@H]2CCN(c3ncc(Sc4ccnc(N)c4Cl)n4cncc34)C[C@@H]21 [Example 135, 4-((8-((1S,6R,7R)-7-(aminomethyl)-7-(2-fluorophenyl)-3-azabicyclo[4.1.0]heptan-3-yl)imidazo[1,5-a]pyrazin-5-yl)thio)-3-chloropyridin-2-amine] | > 3 | > 5 |  |  | 
6 | COc1cccc(-c2n[nH]c3nc(N4CCC5C(C4)C5(CN)c4nc(C)cs4)cnc23)c1Cl (stereo not drawn) [Example 87, (3-(3-(2-chloro-3-methoxyphenyl)-1H-pyrazolo[3,4-b]pyrazin-6-yl)-7-(4-methylthiazol-2-yl)-3-azabicyclo[4.1.0]heptan-7-yl)methanamine] | < 0.5 | < 1 |  |  | 
7 | CC(=O)NC[C@]1(c2ccccc2F)[C@@H]2CCN(c3cnc4c(-c5ccc6nn(C)cc6c5)n[nH]c4n3)C[C@@H]21 [Example 383, N-(((1S,6R,7R)-7-(2-fluorophenyl)-3-(3-(2-methyl-2H-indazol-5-yl)-1H-pyrazolo[3,4-b]pyrazin-6-yl)-3-azabicyclo[4.1.0]heptan-7-yl)methyl)acetamide] | > 3 | < 1 |  |  | 
8 | Cc1csc(C2(CN)C3CCN(c4cnc5c(-c6ccc(S(=O)(=O)F)c7ccccc67)n[nH]c5n4)CC32)n1 (stereo not drawn) [Example 443, 4-(6-(7-(aminomethyl)-7-(4-methylthiazol-2-yl)-3-azabicyclo[4.1.0]heptan-3-yl)-1H-pyrazolo[3,4-b]pyrazin-3-yl)naphthalene-1-sulfonyl fluoride] |  |  | 0.5 to 3 | < 1 | 
9 | Cc1csc([C@@]2(CN)[C@@H]3CN(c4cnc5c(-c6ccc7n[nH]cc7c6Cl)n[nH]c5n4)C[C@@H]32)n1 [Example 505] | < 0.5 |  |  |  | < 1
10 | Cc1cc(C2(CN)C3CCN(c4nc5[nH]nc(-c6ccnc(N)c6Cl)c5nc4CO)CC32)no1 (stereo not drawn) [Example 58, (3-(2-amino-3-chloropyridin-4-yl)-6-(7-(aminomethyl)-7-(5-methylisoxazol-3-yl)-3-azabicyclo[4.1.0]heptan-3-yl)-1H-pyrazolo[3,4-b]pyrazin-5-yl)methanol] | < 0.5 | > 5 |  |  | 
11 | NC[C@]1(c2ccccc2F)[C@@H]2CCN(c3cnc4c(-c5ccc(OS(=O)(=O)F)c6ncccc56)n[nH]c4n3)C[C@@H]21 [Example 449, 5-(6-((1S,6R,7R)-7-(aminomethyl)-7-(2-fluorophenyl)-3-azabicyclo[4.1.0]heptan-3-yl)-1H-pyrazolo[3,4-b]pyrazin-3-yl)quinolin-8-yl sulfurofluoridate] |  |  | < 0.5 | < 1 | 
12 | CC1(C)C(=O)Nc2ccc(-c3n[nH]c4nc(N5CC[C@@H]6[C@H](C5)[C@@]6(CN)c5ccccc5F)cnc34)cc21 [Example 206, 5-(6-((1S,6R,7R)-7-(aminomethyl)-7-(2-fluorophenyl)-3-azabicyclo[4.1.0]heptan-3-yl)-1H-pyrazolo[3,4-b]pyrazin-3-yl)-3,3-dimethylindolin-2-one] | < 0.5 | < 1 |  |  | 
13 | COC(=O)c1ccc(-c2n[nH]c3nc(N4CC[C@@H]5[C@H](C4)[C@@]5(CN)c4ccccc4F)cnc23)c(Cl)c1 [Example 223, methyl 4-(6-((1S,6R,7R)-7-(aminomethyl)-7-(2-fluorophenyl)-3-azabicyclo[4.1.0]heptan-3-yl)-1H-pyrazolo[3,4-b]pyrazin-3-yl)-3-chlorobenzoate] | < 0.5 | < 1 |  |  | 
14 | NC[C@]1(c2ccccc2F)[C@@H]2CCN(c3cnc4c(-c5cnc6ccccn56)n[nH]c4n3)C[C@@H]21 [Example 224, ((1S,6R,7R)-7-(2-fluorophenyl)-3-(3-(imidazo[1,2-a]pyridin-3-yl)-1H-pyrazolo[3,4-b]pyrazin-6-yl)-3-azabicyclo[4.1.0]heptan-7-yl)methanamine] | < 0.5 | < 1 |  |  | 
15 | Cn1cc2cc(-c3ccc4nc(N5CC[C@@H]6[C@H](C5)[C@@]6(CN)c5ccccc5F)cnc4n3)ccc2n1 [Example 415, ((1S,6R,7R)-7-(2-fluorophenyl)-3-(6-(2-methyl-2H-indazol-5-yl)pyrido[2,3-b]pyrazin-2-yl)-3-azabicyclo[4.1.0]heptan-7-yl)methanamine] | < 0.5 | < 1 |  |  | 
16 | Cn1cc2c(Cl)c(-c3n[nH]c4nc(N5C[C@@H]6[C@H](C5)[C@@]6(CN)c5ncc(F)s5)cnc34)ccc2n1 [Example 489, ((1R,5S,6r)-3-(3-(4-chloro-2-methyl-2H-indazol-5-yl)-1H-pyrazolo[3,4-b]pyrazin-6-yl)-6-(5-fluorothiazol-2-yl)-3-azabicyclo[3.1.0]hexan-6-yl)methanamine] | < 0.5 | < 1 |  |  | 
17 | NCC1(c2cccnc2)C2CCN(c3cnc4c(-c5cccc(Cl)c5Cl)n[nH]c4n3)CC21 (stereo not drawn) [Example 2, [3-[3-(2,3-dichlorophenyl)-1H-pyrazolo[3,4-b]pyrazin-6-yl]-7-(pyridin-3-yl)-3-azabicyclo[4.1.0]heptan-7-yl]methanamine] | < 0.5 | < 1 |  |  | 
18 | NCC1(c2ccccc2)C2CCN(c3cnc(Sc4cccnc4C(F)(F)F)c(N)n3)CC21 (stereo not drawn) [Example 71, 6-(7-(aminomethyl)-7-phenyl-3-azabicyclo[4.1.0]heptan-3-yl)-3-((2-(trifluoromethyl)pyridin-3-yl)thio)pyrazin-2-amine] | < 0.5 | > 5 |  |  | 
19 | Cc1ccc2c(-c3n[nH]c4nc(N5CCC6C(C5)C6(CN)c5cc(C)on5)cnc34)cccc2n1 (stereo not drawn) [Example 25, (7-(5-methylisoxazol-3-yl)-3-(3-(2-methylquinolin-5-yl)-1H-pyrazolo[3,4-b]pyrazin-6-yl)-3-azabicyclo[4.1.0]heptan-7-yl)methanamine] | < 0.5 | < 1 |  |  | 
20 | NC[C@]1(c2ccccc2F)[C@@H]2CCN(c3cnc4c(-c5ccc(-c6ccn[nH]6)cc5Cl)n[nH]c4n3)C[C@@H]21 [Example 296, ((1S,6R,7R)-3-(3-(2-chloro-4-(1H-pyrazol-5-yl)phenyl)-1H-pyrazolo[3,4-b]pyrazin-6-yl)-7-(2-fluorophenyl)-3-azabicyclo[4.1.0]heptan-7-yl)methanamine] | < 0.5 | < 1 |  |  | 
21 | CNC(=O)c1ccc(-c2n[nH]c3nc(N4CC[C@@H]5[C@H](C4)[C@@]5(CN)c4ccccc4F)cnc23)c(Cl)c1 [Example 273, 4-(6-((1S,6R,7R)-7-(aminomethyl)-7-(2-fluorophenyl)-3-azabicyclo[4.1.0]heptan-3-yl)-1H-pyrazolo[3,4-b]pyrazin-3-yl)-3-chloro-N-methylbenzamide] | < 0.5 | < 1 |  |  | 
22 | Cc1csc([C@@]2(CN)[C@@H]3CN(c4cnc5c(-c6ccc7nn(C(F)F)cc7c6Cl)n[nH]c5n4)C[C@@H]32)n1 [Example 466] | < 0.5 |  |  |  | < 1
23 | Cc1nccc(Sc2cnc(N3CC[C@@H]4[C@H](C3)[C@@]4(CN)c3cc(F)ccc3F)cn2)c1F [Example 424, ((1S,6R,7R)-7-(2,5-difluorophenyl)-3-(5-((3-fluoro-2-methylpyridin-4-yl)thio)pyrazin-2-yl)-3-azabicyclo[4.1.0]heptan-7-yl)methanamine] | < 0.5 | < 1 |  |  | 
24 | NC[C@]1(c2ccccc2F)[C@@H]2CCN(c3cnc4c(-c5ccc6cnccc6c5)n[nH]c4n3)C[C@@H]21 [Example 247, ((1S,6R,7R)-7-(2-fluorophenyl)-3-(3-(isoquinolin-6-yl)-1H-pyrazolo[3,4-b]pyrazin-6-yl)-3-azabicyclo[4.1.0]heptan-7-yl)methanamine] | < 0.5 | < 1 |  |  | 
